Laboratory results from patent US9827315B2, “Compositions of pharmaceutical actives containing diethylene glycol monoethyl ether or other alkyl derivatives” (THEMIS MEDICARE LIMITED, priority 2013, dated 2017).
Converted amounts (≈) assume the structure as drawn. Where two headings read alike, the source gives them in different places.

What was measured:
[1] = cited from earlier work
[2] = Solubility of pharmaceutical actives in Diethylene glycol monoethyl ether; conditions: for solubility: Diethylene glycol monoethyl ether, organic solvent or mixture, Solubility in Diethylene Glycol Monoethyl Ether
[3] = cited from earlier work; for half-life: in vivo
physchem [4] = conditions: organic solvent or mixture, Solubility in Diethylene Glycol Monoethyl Ether
[5] = Viscosity of formulations prepared in Diethylene glycol monoethyl ether and of comparators; format: physicochemical; conditions: final solution/formulation; marketed comparators
physchem [6] = conditions: organic solvent or mixture
Experimental: Progesterone is dissolved in solution of 20% Benzyl alcohol giving a clear solution and add Diethylene glycol monoethyl ether with constant stirring and make the volume up to 100 ml with Diethylene glycol monoethyl ether. […] This solution is filled in 3 ml clear glass vial.

Compound: CCOC1O[C@@H]2O[C@@]3(C)CC[C@H]4[C@H](C)CC[C@@H]([C@H]1C)[C@@]24OO3 (mixture of isomers) [Arteether, 10-Ethoxydecahydro-3,6,9-trimethyl-3,12-epoxy-12H-pyrano[4,3-j]-1,2-benzodioxepin]
- Solubility in water (descriptive) [1]: quite water insoluble
- Solubility in Diethylene Glycol Monoethyl Ether [2]: 80 mg/mL (≈ 256 mM)

Compound: COCCCOc1ccnc(C[S+]([O-])c2nc3ccccc3[nH]2)c1C (racemic) [Rabeprazole, (RS)-2-([4-(3-methoxypropoxy)-3-methylpyridin-2-yl]methylsulfinyl)-1H-benzo[d]imidazole]
- Solubility in water (descriptive) [1]: insoluble
- bioavailability ([3]; enteric coated tablet): 51%

Compound: CCN1CCCC1CNC(=O)c1cc(S(=O)(=O)CC)c(N)cc1OC (stereo not shown) [Amilsulpride]
- Solubility in water (descriptive) [1]: Practically insoluble in water, sparingly soluble in ethanol, soluble in methanol and freely soluble in dichloromethane
- solubility [2]: 25 mg/mL (≈ 67.7 mM)

Compound: CO[C@H]1O[C@@H]2O[C@@]3(C)CC[C@H]4[C@H](C)CC[C@@H]([C@H]1C)[C@@]24OO3 [Artemether, (+)-(3-alpha,5a-beta,6-beta,8a-beta, 9-alpha,12-beta,12aR)-decahydro-10-methoxy-3,6,9-trimethyl-3,12-epoxy-12H-pyrano(4,3-j)-1,2-benzodioxepin]
- Solubility in water (descriptive) [1]: practically insoluble
- solubility [2]: 100 mg/mL (≈ 335 mM)

Compound: CCN[C@H]1CN(CCCOC)S(=O)(=O)c2sc(S(N)(=O)=O)cc21 [Brinzolamide]
- solubility (physchem [4]): 55.6 mg/mL (≈ 145 mM)

Compound: Cc1ccc(-c2cc(C(F)(F)F)nn2-c2ccc(S(N)(=O)=O)cc2)cc1 [Celecoxib]
- solubility in DMSO [1]: 200 mg/mL (≈ 524 mM)
- solubility in ethanol [1]: 100 mg/mL (≈ 262 mM)
- Solubility in water (descriptive) [1]: very poorly soluble
- solubility [2]: 71.4 mg/mL (≈ 187 mM)

Compound: C[C@H]1O[C@@H](O[C@H]2[C@@H](O)C[C@H](OC3CC[C@@]4(C)[C@H](CC[C@@H]5[C@@H]4C[C@@H](O)[C@]4(C)[C@@H](C6=CC(=O)OC6)CC[C@]54O)C3)O[C@@H]2C)C[C@H](O)C1OC1C[C@H](O)[C@H](O)[C@@H](C)O1 (stereo partly drawn) [Digoxin, (3β, 5β,12β)-3-[(O-2,6-dideoxy-β-D-ribo-hexopyranosyl-(1→4)-O-2,6-dideoxy-β-D-ribo-hexopyranosyl-(1→4)-2,6-dideoxy-β-D-ribo-hexopyranosyl)oxy]-12,14-dihydroxy-card-20(22)-enolide]
- half-life [3]: about 36 hours

Compound: CC(=O)O[C@@]12CO[C@@H]1C[C@H](O)[C@@]1(C)C(=O)[C@H](O)C3=C(C)[C@@H](OC(=O)[C@H](O)[C@@H](NC(=O)OC(C)(C)C)c4ccccc4)C[C@@](O)([C@@H](OC(=O)c4ccccc4)[C@H]21)C3(C)C [Docetaxel, 1,7β,10β-trihydroxy-9-oxo-5β,20-epoxytax-11-ene-2α,4,13α-triyl 4-acetate 2-benzoate 13-{(2R,3S)-3-[(tert-butoxycarbonyl)amino]-2-hydroxy-3-phenylpropanoate}]
- Solubility in water (descriptive) [1]: practically insoluble
- solubility [2]: 55 mg/mL (≈ 68.1 mM)

Compound: COc1cc([C@@H]2c3cc4c(cc3[C@@H](O[C@@H]3O[C@@H]5CO[C@@H](C)O[C@H]5[C@H](O)[C@H]3O)[C@H]3COC(=O)[C@H]23)OCO4)cc(OC)c1O [Etoposide, 4′-demethylepipodophyllotoxin 9-[4,6-0-(R)-ethylidene-β-D-glucopyranoside]]
- Solubility in water (descriptive) [1]: sparingly soluble
- solubility (physchem [4]): 30 mg/mL (≈ 51 mM)

Compound: C[C@]12CC[C@@H]3c4ccc(O)cc4C[C@@H](CCCCCCCCC[S+]([O-])CCCC(F)(F)C(F)(F)F)[C@H]3[C@@H]1CC[C@@H]2O (stereo partly drawn) [Fulvestrant, 7-alpha-[9-(4,4,5,5,5-pentafluoropentylsulphinyl)nonyl]estra-1,3,5-(10)-triene-3,17beta-diol]
- Solubility in water (descriptive) [1]: practically insoluble
- solubility [2]: 58.8 mg/mL (≈ 96.9 mM)

Compound: O=C(CCCN1CCC(O)(c2ccc(Cl)cc2)CC1)c1ccc(F)cc1 [Haloperidol, 4-[4-(p-chlorophenyl)-4-hydroxypiperidino]-4′-fluorobutyrophenone]
- solubility in water [1]: 1.4 mg/100 ml
- solubility in 0.1 N hydrochloric acid ([1]; with heating): 3 mg/mL (≈ 7.98 mM)
- solubility (physchem [4]): 8.3 mg/mL (≈ 22.1 mM)

Compound: CCOC(=O)O[C@]1(C(=O)OCCl)CC[C@H]2[C@@H]3CCC4=CC(=O)C=C[C@]4(C)[C@H]3[C@@H](O)C[C@@]21C [Loteprednol]
- solubility in water [1]: 8 μg per 1t
- solubility (physchem [4]): 25 mg/mL (≈ 53.5 mM)

Compound: NC(=O)Cc1cccc(C(=O)c2ccccc2)c1N [Nepafenac]
- solubility [2]: ≤ 2 mg/mL

Compound: CC(=O)O[C@H]1C(=O)[C@@]2(C)[C@H]([C@H](OC(=O)c3ccccc3)[C@]3(O)CC(OC(=O)[C@H](O)[C@@H](NC(=O)c4ccccc4)c4ccccc4)C(C)=C1C3(C)C)[C@]1(OC(C)=O)CO[C@@H]1C[C@@H]2O (stereo partly drawn) [Paclitaxel, (2α,4α,5β,7β,10β,13α)-4,10-bis(acetyloxy)-13-{[(2R,3S)-3-(benzoylamino)-2-hydroxy-3-phenylpropanoyl]oxy}-1,7-dihydroxy-9-oxo-5,20-epoxytax-11-en-2-yl benzoate]
- Solubility in water (descriptive) [1]: insoluble
- solubility (physchem [4]): 23.8 mg/mL (≈ 27.9 mM)

Compound: COc1ccnc(C[S+]([O-])c2nc3ccc(OC(F)F)cc3[nH]2)c1OC (stereo not shown) [Pantoprazole]
- Solubility in Diethylene Glycol Monoethyl Ether [2]: 80 mg/mL (≈ 209 mM)

Compound: CN1C(C(=O)Nc2ccccn2)=C(O)c2ccccc2S1(=O)=O [Piroxicam, (8E)-8-[hydroxy-(pyridin-2-ylamino)methylidene]-9-methyl-10,10-dioxo-10λ6-thia-9-azabicyclo[4.4.0]deca-1,3,5-trien-7-one]
- Viscosity [5]: 3.365 cps

Compound: CC(=O)[C@H]1CC[C@H]2[C@@H]3CCC4=CC(=O)CC[C@]4(C)[C@H]3CC[C@]12C [Progesterone, pregn-4-ene-3,20-dione]
- solubility in water ([1]; at 19° C.): < 0.1 g/100 ml
- Solubility in water (descriptive) [1]: insoluble
- solubility (physchem [6]): ≤ 100 mg/mL

Compound: CC(C)c1cccc(C(C)C)c1O [Propofol, 2,6-diisopropylphenol]
- Viscosity [5]: less than 5 cps

Compound: CCCCC[C@H](O)/C=C/[C@H]1[C@H](O)CC(=O)[C@@H]1CCCCCCC(=O)O [Prostaglandin E1 (Alprostadil), (11α,13E,15S)-11,15-dihydroxy-9-oxoprost-13-en-1-oic acid]
- solubility in double distilled water ([1]; at 35° C.): 8000 micrograms per 100 milliliter
- solubility (physchem [4]): 50 mg/mL (≈ 141 mM)

Compound: CN(C/C=C/C#CC(C)(C)C)Cc1cccc2ccccc12 [Terbinafine, [(2E)-6,6-dimethylhept-2-en-4-yn-1-yl](methyl)(naphthalen-1-ylmethyl)amine]
- Solubility in water (descriptive) [1]: slightly soluble
- solubility [2]: 16.7 mg/mL (≈ 57.2 mM)

Compound: C[C@]12CC[C@H]3[C@@H](CCC4=CC(=O)CC[C@@]43C)[C@@H]1CC[C@@H]2OC(=O)CCC1CCCC1 [Testosterone Cypionate, androst-4-en-3-one, 17-(3-cyclopentyl-1-oxopropoxy)-, (17β)-]
- solubility (physchem [4]): 50 mg/mL (≈ 121 mM)
- Viscosity [5]: less than 7 cps

Compound: CCCCCCC(=O)O[C@H]1CC[C@H]2C3CCC4=CC(=O)CCC4(C)[C@H]3CCC12C (stereo partly shown) [Testosterone Enanthate, Testosterone enanthate]
- Solubility in water (descriptive) [1]: insoluble
- solubility (physchem [4]): 55.5 mg/mL (≈ 139 mM)

Compound: C[C@]12CC[C@H]3[C@@H](CCC4=CC(=O)CC[C@@]43C)[C@@H]1CC[C@@H]2O [Testosterone]
- Solubility in water (descriptive) [1]: practically insoluble
- half-life [3]: 2 to 4 h

Compound: NC[C@H]1O[C@H](O[C@H]2[C@H](O)[C@@H](O[C@H]3O[C@H](CO)[C@@H](O)[C@H](N)[C@H]3O)[C@H](N)C[C@@H]2N)[C@H](N)C[C@@H]1O [Tobramycin]
- Solubility in water (descriptive) [1]: Soluble
- solubility [2]: 3 mg/mL (≈ 6.42 mM)

Compound: CC1(C)O[C@@H]2C[C@H]3[C@@H]4CCC5=CC(=O)C=C[C@]5(C)[C@@]4(F)[C@@H](O)C[C@]3(C)[C@]2(C(=O)CO)O1 [Triamcinolone Acetonide, 9-Fluoro-11β,16α,17,21-tetrahydroxypregna-1,4-diene-3,20-dione cyclic 16,17acetal with acetone]
- Solubility in water (descriptive) [1]: practically insoluble

Compound: CCOC(=O)C1=C[C@]2(CC)CCCN3CCc4c(n1c1ccccc41)[C@@H]32 [Vinpocetine]
- Solubility in water (descriptive) [1]: Soluble in DMSO, DMF, ethanol, acetic acid, acetone, and chloroform. Insoluble in water.
- solubility [2]: 12 mg/mL (≈ 34.2 mM)

Compound: C[C@@H](c1ncncc1F)[C@](O)(Cn1cncn1)c1ccc(F)cc1F [Voricanozole, (2R,3S)-2-(2,4-difluorophenyl)-3-(5-fluoropyrimidin-4-yl)-1-(1H-1,2,4-triazol-1-yl)butan-2-ol]
- Viscosity [5]: 2.977 cps

Compound: C[C@H]1[C@H](OC(=O)CCC(=O)[O-])O[C@@H]2O[C@@]3(C)CC[C@H]4[C@H](C)CC[C@@H]1[C@@]24OO3.[Na+] [sodium Artesunate]
- Solubility in water (descriptive) [1]: soluble

Compound: (3R,4S,5S,6R,7R,9R,11R,12R,13S,14R)-4-[(2,6-Dideoxy-3-C-methyl-3-O-methyl-a-L-ribo-hexopyranosyl)oxy]-14-ethyl-12,13-dihydroxy-7-methoxy-3,5,7,9,11,13-hexamethyl-6-[[3,4,6-trideoxy-3-(dimethylamino)-b-D-xylo-hexopyranosyl]oxy]oxacyclotetradecane-2,10-dione [Clarithromycin]
- Solubility in water (descriptive) [1]: insoluble

Compound: (3R,4S,5S,6R,7R,9R,11S,12R,13S,14S)-6-{[(2S,3R,4S,6R) -4-(dimethylamino)-3-hydroxy-6-methyloxan-2-yl]oxy}-14-ethyl-12,13-dihydroxy-4-{[(2R,4S,5S,6S)-5-hydroxy-4-methoxy-4,6-dimethyloxan-2-yl]oxy}-7-methoxy-3,5,7,9,11,13-hexamethyl-1-oxacyclotetradecane-2,10-dione [Azithromycin]
- Solubility in water (descriptive) [1]: practically insoluble

Compound: Rimexolone
- Solubility in water (descriptive) [1]: Very slightly soluble in water; freely soluble in chloroform; soluble in ethyl acetate and in methanol

Compound: Tacrolimus
- Solubility in water (descriptive) [1]: Insoluble in water, freely soluble in ethanol, and very soluble in methanol and chloroform.
